Assay results: patent publication US7265152B2 (ViroPharma Incorporated, priority 2002, dated 2007)
Like-named read-outs stand apart in the source and are kept apart here.

Experiments:
[1] = system: HCV replicon (BB7 sequence) in Huh-7-Clone A cells; experiment: HCV replicon assay: ELISA of NS5A protein in replicon-containing cells (Inhibition of Viral RNA Replication); assay type: cell-based; settings: read-out: Replicon
Outline: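 EC50 taken from an 8-point serially diluted dose curve, with NS5A level as read-out: fixed cells probed with primary monoclonal and HRP-conjugated secondary, TMB developed 30 min, OD 650 nm. Compound exposure 72 h in Huh-7-Clone A replicon cells (BB7 sequence).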

[2] = target: T1, HCV NS5B (Hepatitis C virus genotype 1b, UniProt Q9WMX2); experiment: Inhibition of viral RNA-dependent RNA polymerase (RdRp), in vitro biochemical assay; parameters: species or system HCV genotype 1b virus (BB7); settings: read-out: HCV pol-BB7 IC50
T1 construct: fusion protein, of which the carboxyl terminal 21 amino acids were removed to enhance its solubility; His tag (GSHHHHHH); made in house; host or cells: E. coli
Outline: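 IC50 values are the concentrations that halve in vitro RNA synthesis by HCV NS5B polymerase. The enzyme was a C-terminally truncated (Δ21), His-tagged genotype 1b (BB7 consensus) protein purified from E. coli.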

[3] = Hepatitis C virus, HCV replicon assay, ranges of EC50
[4] = HCV NS5B RdRp, BB7, activity class
[5] = Hepatitis C virus, HCV replicon assay, ranges of 50% effective concentration (EC50)
[6] = HCV NS5B polymerase, BB7 (genotype 1b), values given as range classes A-D
[7] = Hepatitis C virus, Huh-7-Clone A, NS5A ELISA, 72-hour incubation, ranges of EC50
[8] = purified His-tagged NS5B (BB7), carboxyl terminal 21 amino acids removed
[9] = Hepatitis C virus, HCV replicon, range of EC50
[10] = HCV NS5B RdRp, BB7, reported as range class
[11] = Hepatitis C virus, ranges of EC50 in HCV replicon assay
[12] = HCV NS5B RdRp, BB7 (genotype 1b), reported as class symbols

**Q.** What does the source list for “2-(4-Fluoro-phenyl)-5-isopropoxy-6-ureido-benzofuran-3-carboxylic acid methylamide [Example 135]”?
**A.** EC50 ([1]; ranges of EC50 in HCV replicon assay): < 10 µM; IC50 ([2]; HCV NS5B RdRp, BB7 genotype 1b): ≤ 0.5 µM

**Q.** How did the EC50 [1, 3] turn out when `CNC(=O)c1c(-c2ccc(F)cc2)oc2cc(N(C)S(C)(=O)=O)c(OCC(=O)c3ccc(OC)cc3)cc12` [Example 355, 2-(4-Fluoro-phenyl)-6-(methanesulfonyl-methyl-amino)-5-[2-(4-methoxy-phenyl)-2-oxo-ethoxy]-benzofuran-3-carboxylic acid methylamide] was run?
**A.** < 1 µM

**Q.** And the IC50 [2, 4]?
**A.** ≤ 0.5 µM

**Q.** With `CNC(=O)c1c(-c2ccc(F)cc2)oc2cc(N(C)S(C)(=O)=O)c(OCc3ccc(S(C)(=O)=O)cc3)cc12` [Example 353, 2-(4-Fluoro-phenyl)-5-(4-methanesulfonyl-benzyloxy)-6-(methanesulfonyl-methyl-amino)-benzofuran-3-carboxylic acid methylamide] as the molecule, how does the EC50 [1, 3] read?
**A.** < 1 µM

**Q.** What about the IC50 [2, 4] of the same molecule?
**A.** ≤ 0.5 µM

**Q.** Which EC50 [1, 5] does the source give for `CNC(=O)c1c(-c2ccc(F)cc2)oc2cc(N(C)S(C)(=O)=O)c(OCC(=O)OC(C)(C)C)cc12` [Example 382, [2-(4-Fluoro-phenyl)-6-(methanesulfonyl-methyl-amino)-3-methylcarbamoyl-benzofuran-5-yloxy]-acetic acid tert-butyl ester] here?
**A.** < 1 µM

**Q.** What about the IC50 [2, 6] of the same molecule?
**A.** ≤ 0.5 µM

**Q.** Which results are given for `CNC(=O)c1c(-c2ccc(F)cc2)oc2cc(C(C)NC)c(OC)cc12` (stereo not shown) [Example 304, 2-(4-Fluoro-phenyl)-5-methoxy-6-(1-methylamino-ethyl)-benzofuran-3-carboxylic acid methylamide]?
**A.** EC50 [1, 3]: > 30 µM; IC50 ([2]; HCV NS5B RdRp, BB7, class symbols A-D): 0.5 to 5 µM

**Q.** How did the EC50 [1, 7] turn out when `CCc1ccc2oc(-c3ccccc3)c(C(=O)NC)c2c1` [Example 84, 5-Ethyl-2-phenyl-benzofuran-3-carboxylic acid methylamide] was run?
**A.** < 30 µM

**Q.** And the IC50 [2, 8]?
**A.** 0.5 to 5 µM

**Q.** `CNC(=O)c1c(-c2ccc(F)cc2)oc2cc(OCc3ccccc3)c(OC)cc12` [Example 181, 6-Benzyloxy-2-(4-fluoro-phenyl)-5-methoxy-benzofuran-3-carboxylic acid methylamide] was tested. Which EC50 [1, 9] did it give?
**A.** < 10 µM

**Q.** And the IC50 [2, 10]?
**A.** ≤ 0.5 µM

**Q.** How did the EC50 [1, 9] turn out when `CNC(=O)c1c(-c2ccc(F)cc2)oc2cc(-c3cn[nH]c3)c(OC(C)C)cc12` [Example 239, 2-(4-Fluoro-phenyl)-5-isopropoxy-6-(1H-pyrazol-4-yl)-benzofuran-3-carboxylic acid methylamide] was run?
**A.** < 10 µM

**Q.** And the IC50 [2, 10]?
**A.** 5 to 30 µM

**Q.** For `CNC(=O)c1c(-c2ccc(F)cc2)oc2cc(N3CCOCC3)c(OCc3ccc(F)cc3)cc12` [Example 167, 5-(4-Fluoro-benzyloxy)-2-(4-fluoro-phenyl)-6-morpholin-4-yl-benzofuran-3-carboxylic acid methylamide], which EC50 [1, 11] is on record?
**A.** < 1 µM

**Q.** And the IC50 ([2]; HCV NS5B RdRp, BB7 genotype 1b)?
**A.** 0.5 to 5 µM

**Q.** With “5-(3-Cyano-benzyloxy)-2-(4-fluoro-phenyl)-6-(methanesulfonyl-methoxymethyl-amino)-benzofuran-3-carboxylic acid methylamide [Example 447]” as the molecule, how does the EC50 ([1]; HCV replicon assay, ranges of EC50) read?
**A.** < 1 µM

**Q.** And the IC50 [2, 12]?
**A.** ≤ 0.5 µM

**Q.** What does the source list for `CCCOc1cc2c(C(=O)NC)c(-c3ccc(F)cc3)oc2cc1NS(C)(=O)=O` [Example 445, 2-(4-Fluoro-phenyl)-6-methanesulfonylamino-5-propoxy-benzofuran-3-carboxylic acid methylamide]?
**A.** EC50 [1, 3]: < 1 µM; IC50 [2, 12]: ≤ 0.5 µM

**Q.** What does the source list for `CNC(=O)c1c(-c2ccc(F)cc2)oc2cc(NCc3ccoc3)c(OC(C)C)cc12` [Example 112, 2-(4-Fluoro-phenyl)-6-[(furan-3-ylmethyl)-amino]-5-isopropoxy-benzofuran-3-carboxylic acid methylamide]?
**A.** EC50 [1, 11]: < 1 µM; IC50 ([2]; HCV NS5B RdRp, BB7 genotype 1b): ≤ 0.5 µM

**Q.** For `CCNc1cc2oc(-c3ccc(F)cc3)c(C(=O)NC)c2cc1OCCCOCC` [Example 367, 5-(3-Ethoxy-propoxy)-6-ethylamino-2-(4-fluoro-phenyl)-benzofuran-3-carboxylic acid methylamide], which EC50 [1, 3] is on record?
**A.** < 1 µM

**Q.** What about the IC50 [2, 4] of the same molecule?
**A.** ≤ 0.5 µM

**Q.** Which results are given for `CNC(=O)c1c(-c2ccc(F)cc2)oc2cc(N3CCC(F)(F)CC3)c(OC(C)C)cc12` [Example 170, 6-(4,4-Difluoro-piperidin-1-yl)-2-(4-fluoro-phenyl)-5-isopropoxy-benzofuran-3-carboxylic acid methylamide]?
**A.** EC50 [1, 11]: < 1 µM; IC50 ([2]; HCV NS5B RdRp, BB7 genotype 1b): 5 to 30 µM

**Q.** Which EC50 [1, 3] does the source give for `CNC(=O)c1c(-c2ccc(F)cc2)oc2cc(-c3c(COC)noc3C)c(OC)cc12` [Example 336, 2-(4-Fluoro-phenyl)-5-methoxy-6-(3-methoxymethyl-5-methyl-isoxazol-4-yl)-benzofuran-3-carboxylic acid methylamide] here?
**A.** < 1 µM

**Q.** And the IC50 [2, 4]?
**A.** ≤ 0.5 µM

**Q.** Which EC50 [1, 3] does the source give for `CCN(CC)c1nc(COc2cc3c(C(=O)NC)c(-c4ccc(F)cc4)oc3cc2N(C)S(C)(=O)=O)ns1` [Example 373, 5-(5-Diethylamino-[1,2,4]thiadiazol-3-ylmethoxy)-2-(4-fluoro-phenyl)-6-(methanesulfonyl-methyl-amino)-benzofuran-3-carboxylic acid methylamide] here?
**A.** < 1 µM

**Q.** And the IC50 [2, 4]?
**A.** ≤ 0.5 µM

**Q.** What does the source list for `CNC(=O)c1c(-c2ccc(F)cc2)oc2cc(O)c(O)cc12` [Example 192, 2-(4-Fluoro-phenyl)-5,6-dihydroxy-benzofuran-3-carboxylic acid methylamide]?
**A.** EC50 [1, 9]: > 30 µM; IC50 [2, 10]: 5 to 30 µM

**Q.** How did the EC50 [1, 7] turn out when `CNC(=O)c1c(-c2ccc(F)cc2)oc2cc(N3CCOCC3)c(OC(C)C)cc12` [Example 24, 2-(4-Fluoro-phenyl)-5-isopropoxy-6-morpholin-4-yl-benzofuran-3-carboxylic acid methylamide] was run?
**A.** < 1 µM

**Q.** What about the IC50 [2, 8] of the same molecule?
**A.** ≤ 0.5 µM

**Q.** Which EC50 [1, 7] does the source give for `CNC(=O)c1c(-c2ccc(F)cc2)oc2cc(NCCOC)c(OC(C)C)cc12` [Example 8, 2-(4-Fluoro-phenyl)-5-isopropoxy-6-(2-methoxy-ethylamino)-benzofuran-3-carboxylic acid methylamide] here?
**A.** < 1 µM

**Q.** What about the IC50 [2, 8] of the same molecule?
**A.** ≤ 0.5 µM

**Q.** What does the source list for `CNC(=O)c1c(-c2ccccc2Cl)oc2ccc(OC)cc12` [Example 66, 2-(2-Chloro-phenyl)-5-methoxy-benzofuran-3-carboxylic acid methylamide]?
**A.** EC50 [1, 7]: > 30 µM; IC50 [2, 8]: 5 to 30 µM

**Q.** Which results are given for `CNC(=O)c1c(-c2ccc(F)cc2)oc2cc(N(C)S(C)(=O)=O)c(OC)cc12` [Example 29, 2-(4-Fluoro-phenyl)-6-(methanesulfonyl-methyl-amino)-5-methoxy-benzofuran-3-carboxylic acid methylamide]?
**A.** EC50 [1, 7]: < 1 µM; IC50 [2, 8]: ≤ 0.5 µM

**Q.** What does the source list for `CNC(=O)c1c(-c2ccccc2)oc2ccc(OC)cc12` [Example 452, 5-Methoxy-2-phenyl-benzofuran-3-carboxylic acid methylamide]?
**A.** EC50 [1, 3]: > 10 µM; IC50 [2, 12]: ≤ 0.5 µM

**Q.** For `CNC(=O)c1c(-c2ccc(F)cc2)oc2cc(N(Cc3cscn3)S(C)(=O)=O)c(OC(C)C)cc12` [Example 36, 2-(4-Fluoro-phenyl)-5-isopropoxy-6-(methanesulfonyl-thiazol-4-ylmethyl-amino)-benzofuran-3-carboxylic acid methylamide], which EC50 [1, 7] is on record?
**A.** < 1 µM

**Q.** And the IC50 [2, 8]?
**A.** ≤ 0.5 µM

**Q.** `CNC(=O)c1c(-c2ccc(F)cc2)oc2cc(N3CCOCC3)c(OCc3nnnn3C)cc12` [Example 209, 2-(4-Fluoro-phenyl)-5-(1-methyl-1H-tetrazol-5-ylmethoxy)-6-morpholin-4-yl-benzofuran-3-carboxylic acid methylamide] was tested. Which EC50 [1, 9] did it give?
**A.** < 10 µM

**Q.** And the IC50 [2, 10]?
**A.** 0.5 to 5 µM

**Q.** `CCOc1cc2c(C(=O)NC)c(-c3ccc(F)cc3)oc2cc1N(CC)CC` [Example 423, 6-Diethylamino-5-ethoxy-2-(4-fluoro-phenyl)-benzofuran-3-carboxylic acid methylamide] was tested. Which EC50 [1, 5] did it give?
**A.** < 1 µM

**Q.** What about the IC50 [2, 6] of the same molecule?
**A.** ≤ 0.5 µM

**Q.** For `CNC(=O)c1c(-c2ccc(F)cc2)oc2cc(N3CCCS3(=O)=O)c(OC(C)C)cc12` [Example 134, 6-(1,1-Dioxido-isothiazolidin-2-yl)-2-(4-fluoro-phenyl)-5-isopropoxy-benzofuran-3-carboxylic acid methylamide], which EC50 [1, 11] is on record?
**A.** < 10 µM

**Q.** What about the IC50 ([2]; HCV NS5B RdRp, BB7 genotype 1b) of the same molecule?
**A.** 0.5 to 5 µM

**Q.** Which EC50 [1, 5] does the source give for `CNC(=O)c1c(-c2ccc(F)cc2)oc2cc(N(C)S(C)(=O)=O)c(OCc3nccn3C)cc12` [Example 398, 2-(4-Fluoro-phenyl)-6-(methanesulfonyl-methyl-amino)-5-(1-methyl-1H-imidazol-2-ylmethoxy)-benzofuran-3-carboxylic acid methylamide] here?
**A.** < 1 µM

**Q.** And the IC50 [2, 6]?
**A.** ≤ 0.5 µM

**Q.** Which results are given for `CNC(=O)c1c(-c2ccncc2)oc2ccc(F)cc12` [Example 96, 5-Fluoro-2-pyridin-4-yl-benzofuran-3-carboxylic acid methylamide]?
**A.** EC50 [1, 11]: > 30 µM; IC50 ([2]; HCV NS5B RdRp, BB7 genotype 1b): 0.5 to 5 µM

**Q.** Which EC50 [1, 9] does the source give for `CNC(=O)c1c(-c2ccc(F)cc2)oc2cc(N(CCN3CCOCC3)S(C)(=O)=O)c(OC(C)C)cc12` [Example 191, 2-(4-Fluoro-phenyl)-5-isopropoxy-6-[methanesulfonyl-(2-morpholin-4-yl-ethyl)-amino]-benzofuran-3-carboxylic acid methylamide] here?
**A.** < 1 µM

**Q.** And the IC50 [2, 10]?
**A.** ≤ 0.5 µM
